Experimental data from patent US5908846A (priority 1993, dated 1999).
≈ marks a conversion by molar mass, not a printed value.

Key:
[1] = In vitro skin permeation (diffusion) study, open Franz diffusion cells, whole abdominal human skin; conditions: for Flux, IPM: steady state, IPM solution not saturated, human skin
physchem = experiment: physchem
Protocol: (§1) The experimental methods used for these determinations are described below.
The mixtures were placed in an ultrasonic bath for 10 min and then rotated on a mechanical spindle for 24 h and filtered. After rotation for 1 h the pH of the phosphate buffer mixtures was adjusted to 7.0. An aliquot of the filtrates was diluted with water or acetonitrile and analyzed by HPLC.

[2] = Apparent partition coefficient (P) between octanol and pH 7.4 aqueous buffer at 21° C.; conditions: octanol / phosphate buffer
Protocol: as §1
The concentration of the compounds in the aqueous phase before and after partitioning was determined by HPLC analysis, and the partition coefficients determined.

[3] = pH 7
in vitro = conditions: human
[4] = isopropyl myristate, organic solvent or mixture
[5] = phosphate buffer, pH 7, aqueous buffer

Row | Compound | Flux, IPM ([1]; 200 mg/ml) [μg/cm^2 /h] | solubility at 24 h (physchem; [4]) [mg/mL] | solubility at 24 h (physchem; [5]) [mg/mL] | logD [2] | Flux, Buffer [3] [μg/cm^2 /h] | Papp (in vitro) [×10⁻⁶ cm/s] | Papp (in vitro; pH 7) [×10⁻⁶ cm/s] | Amount penetrated present in the receptor phase as the 6-monoester ([1]; receptor phase composition after human skin permeation) [%] | Flux, IPM ([1]; 125 mg/ml) [μg/cm^2 /h]
1 | 3-Butoxy-morphlne | 8.3 ± 2.2 | – | – | – | – | – | – | – | –
2 | CCCCCC(=O)Oc1ccc2c3c1O[C@H]1[C@@H](OC(=O)CCCCC)C=C[C@H]4[C@@H](C2)N(C)CC[C@@]341 [3,6-Dihexanoyl-morphine, 3,6-dihexanoyl morphine] | 11.7 ± 1.2 | > 200 | 0.02 (≈ 0.0415 mM) | > 4 | 1.7 ± 0.2 | > 0.0444 | 38.9 | – | –
3 | CC(C)C(=O)Oc1ccc2c3c1O[C@H]1[C@@H](OC(=O)C(C)C)C=C[C@H]4[C@@H](C2)N(C)CC[C@@]341 [3,6-Diisobutyryl-morphine, 3,6-diisobutyryl morphine] | – | 80 (≈ 188 mM) | 0.6 (≈ 1.41 mM) | 2.6 | – | – | – | – | –
4 | CCC(=O)Oc1ccc2c3c1O[C@H]1[C@@H](OC(=O)CC)C=C[C@H]4[C@@H](C2)N(C)CC[C@@]341 [3,6-Dipropionyl-morphine, 3,6-dipropionyl morphine] | – | 41 (≈ 103 mM) | 3.6 (≈ 9.06 mM) | 1.66 | 2.5 ± 0.5 | – | 0.278 | ~50 | –
5 | CC(=O)Oc1ccc2c3c1O[C@H]1[C@@H](O)C=C[C@H]4[C@@H](C2)N(C)CC[C@@]341 [3-Acetyl-morphine] | 11.4 ± 1.8 | – | – | – | – | – | – | – | –
6 | CCCCCC(=O)Oc1ccc2c3c1O[C@H]1[C@@H](O)C=C[C@H]4[C@@H](C2)N(C)CC[C@@]341 [3-Hexanoyl-morphine, 3-hexanoyl morphine] | – | > 150 | 2.6 (≈ 6.78 mM) | 2.04 | 25.3 ± 4.2 | > 0.0667 | 3.61 | – | 35.6 ± 12.0
7 | CC(C)C(=O)Oc1ccc2c3c1O[C@H]1[C@@H](O)C=C[C@H]4[C@@H](C2)N(C)CC[C@@]341 [3-Isobutyryl-morphine] | 27.0 ± 3.3 | – | – | – | – | – | – | – | –
8 | CCC(=O)Oc1ccc2c3c1O[C@H]1[C@@H](O)C=C[C@H]4[C@@H](C2)N(C)CC[C@@]341 [3-Propionyl-morphine, 3-propionyl morphine] | – | 79 (≈ 231 mM) | 21 (≈ 61.5 mM) | 0.66 | – | – | – | – | –
9 | CCCCC(=O)Oc1ccc2c3c1O[C@H]1[C@@H](O)C=C[C@H]4[C@@H](C2)N(C)CC[C@@]341 [3-Valeryl-morphine] | 16.5 ± 2.7 | – | – | – | – | – | – | – | –
